Source: patent US7932287B2, “Therapeutic compositions and uses” (ChemGenes Corporation, priority 2004, dated 2011)
Where two headings read alike, the source gives them in different places.

Experiments:
L-carnitine biosynthesis [1] = details: rats; increased amount of the intermediate in the bloodstream; cited from earlier work
L-carnitine biosynthesis [2] = details: human infants & adults; increased amount of the intermediate in the bloodstream; cited from earlier work
[3] = tested on: child diagnosed with Late Infantile Neuronal Ceroid Lipofuscinosis (LINCL); assay: Blood work (standard clinical blood tests) before and after TML therapy; assay type: in vivo, human; design: Glutamine / Taurine / Carnitine, Total / Carnitine, Esthers / Alanine / Carbon Dioxide / BUN / Hgb / HCT / RDW / ABS Lymphocytes / Glycine: unit not given here
Experimental: (§1) Child had been taking the supplements/vitamins listed in Appendix B for about three years before the start of TML therapy. In addition, they had been taking clonazepam (5-(2-chlorophenyl)-1,3-dihydro7-nitro-2H-1,4-benzodiazepin-2-one) which is sold under the trade name Klonopin by F. Hoffmann-La Roche Ltd. (Basel, Switzerland) for control of constant Myoclonic seizures for about the same time according to the following daily dosage: (a) at waking: ½ of one 0.5 mg tablet, (b) Every four hours after waking, ¼ of one 0.5 mg tablet, (c) At bedtime: ½ of one 0.5 mg tablet. They also took one (1) 25 mg capsule of nitrofurantoin macrocrystals (sold under the name Macrodantin by Procter & Gamble Pharmaceuticals, Cincinnati Ohio) once per day.
(§2) “Baseline” blood work was done after an overnight fast on the morning of Nov. 19, 2003. Child received their usual supplements/vitamins, clonazepam, and macrodantin. TML, as synthesized in Example 1 was given to the patient (5 mg of TML per day for a […], ending Dec. 28, 2003). Between Dec. 28, 2003 and Jan. 24, 2004 we gave an alternating daily dose of 5 mg/day and 10 mg/day. On Jan. 24, 2004 and till the “new” blood work was done on Jan. 29, 2004, the patient received 10 mg/day by usually taking 5 mg of TML with breakfast and 5 mg of TML with dinner. They received 5 mg per dose during the duration of the experiment. In other words, they received TML once per day on days that they received 5 mg, and TML twice per day on days that they received 10 mg of TML. The TML was administered in powder form intermixed with their food.
The child's bloodwork results are in table 1, below and the empirical nature of the child's improvement is evidenced by the follow up blood results. These blood tests were standard clinical tests carried out at Children's Hospital of Pittsburgh.

[4] = tested on: child diagnosed with Late Infantile Neuronal Ceroid Lipofuscinosis (LINCL); assay: Physical condition of the patient after 9 weeks of TML therapy (parents' and physicians' observations); assay type: in vivo, human
Experimental: as §1, §2
Child's General Physical Condition Before the Start of TML Therapy (Based on Parents' Observations):
(The Physical Appearance of the Patient After the Stated 9 Weeks of TML Therapy.)

[5] = tested on: child diagnosed with Late Infantile Neuronal Ceroid Lipofuscinosis (LINCL); assay: as above; assay type: in vivo, human; details: TML 5 mg-30 mg per day after Jan. 29, 2004, through January 2005
[6] = tested on: child who was afflicted with LINCL; assay: Exogenous L-carnitine given to the LINCL child for over three years; assay type: in vivo, human
Experimental: as §1
In summary, L-carnitine plays a key and critical role in enhancing fat metabolism. Reports attest to the fact that L-carnitine works by transporting fatty acids to be burned for fuel, increasing both energy supply and lean muscle mass. […] This contrasts with the apparent need in Late Infantile Neuronal Ceroid Lipofuscinosis (LINCL-one form of Batten Disease) of the correct operation of the endogenous production of L-carnitine. […] This also was not observed by the parents of the child who was afflicted with LINCL (discussed later).

[7] = tested on: dogs with Batten Disease (Juvenile Neuronal Ceroid Lipofuscinosis); details: cited from earlier work
[8] = Jan. 29, 2004, after TML, baseline high
[9] = Jan. 29, 2004, after TML, baseline normal
[10] = exogenous carnitine, dogs with Juvenile Neuronal Ceroid Lipofuscinosis

Question: Which results are given for C[N+](C)(C)CCCC(=O)[O-] [g-butyrobetaine, 4-N-trimethylaminobutyrate, reference compound]?
Answer: Increase of the production of L-carnitine (L-carnitine biosynthesis [1]): 100 fold; Increase of the production of L-carnitine (L-carnitine biosynthesis [2]): 3 fold

Question: Which Hgb ([3]; Jan. 29, 2004, after 9 weeks of TML 5-10 mg/day in food, overnight fast, baseline Nov. 19, 2003: 14.4 (high)) does the source give for C[N+](C)(C)CCCCC(N)C(=O)[O-] [TML, N-6-trimethyl-L-lysine] here?
Answer: 14

Question: What about the BUN ([3]; Jan. 29, 2004, after 9 weeks of TML 5-10 mg/day, baseline 2 (low), 6 is norm) of the same compound?
Answer: 5

Question: And the “ABS Lymphocytes” value ([3]; Jan. 29, 2004, after 9 weeks of TML 5-10 mg/day, baseline 2.2 (low))?
Answer: 2.5

Question: What about the “Carnitine, Esthers” value ([3]; Jan. 29, 2004, after 9 weeks of TML 5-10 mg/day, baseline 7 (normal)) of the same compound?
Answer: 10

Question: What about the RDW ([3]; Jan. 29, 2004, after 9 weeks of TML 5-10 mg/day, baseline 11.5) of the same compound?
Answer: 12.3

Question: What about the Taurine ([3]; Jan. 29, 2004, after 9 weeks of TML 5-10 mg/day, baseline 24 (high)) of the same compound?
Answer: 19

Question: What about the “Carbon Dioxide” value ([3]; Jan. 29, 2004, after 9 weeks of TML 5-10 mg/day, baseline 32 (high)) of the same compound?
Answer: 22

Question: And the “Carnitine, Total” value ([3]; Jan. 29, 2004, after 9 weeks of TML 5-10 mg/day, baseline 40 (normal))?
Answer: 43

Question: What about the HCT ([3]; Jan. 29, 2004, after 9 weeks of TML 5-10 mg/day, baseline 42 (high)) of the same compound?
Answer: 40.3

Question: What about the Glycine ([3]; Jan. 29, 2004, after 9 weeks of TML 5-10 mg/day, baseline 50 (high)) of the same compound?
Answer: 25

Question: What about the AST ([3]; Jan. 29, 2004, after 9 weeks of TML 5-10 mg/day, baseline 60 (high), 40 is norm) of the same compound?
Answer: 50

Question: What about the Alanine ([3]; Jan. 29, 2004, after 9 weeks of TML 5-10 mg/day, baseline 87 (high)) of the same compound?
Answer: 47

Question: And the Glutamine ([3]; Jan. 29, 2004, after 9 weeks of TML 5-10 mg/day, baseline 99 (high))?
Answer: 70

Question: And the Platelets ([3]; Jan. 29, 2004, after 9 weeks of TML 5-10 mg/day, baseline 586 (high), 369 norm)?
Answer: 461

Question: And the “Alanine, Clinical Range” value [3, 8]?
Answer: normal

Question: What about the “Carbon Dioxide, Clinical Range” value [3, 8] of the same compound?
Answer: normal

Question: What about the “Glutamine, Clinical Range” value [3, 8] of the same compound?
Answer: normal

Question: And the “Glycine, Clinical Range” value [3, 8]?
Answer: normal

Question: And the “HCT, Clinical Range” value [3, 8]?
Answer: normal

Question: And the “Hgb, Clinical Range” value [3, 8]?
Answer: normal

Question: What about the “RDW, Clinical Range” value [3, 8] of the same compound?
Answer: normal

Question: What about the “Taurine, Clinical Range” value [3, 8] of the same compound?
Answer: normal

Question: And the “AST, Clinical Range” value ([3]; Jan. 29, 2004, after TML, baseline high, 40 is norm)?
Answer: high

Question: And the “Platelets, Clinical Range” value ([3]; Jan. 29, 2004, after TML, baseline high, 369 norm)?
Answer: high

Question: What about the “ABS Lymphocytes, Clinical Range” value ([3]; Jan. 29, 2004, after TML, baseline low) of the same compound?
Answer: normal

Question: And the “BUN, Clinical Range” value ([3]; Jan. 29, 2004, after TML, baseline low, 6 is norm)?
Answer: (low)

Question: What about the “Carnitine, Esthers, Clinical Range” value [3, 9] of the same compound?
Answer: normal

Question: What about the “Carnitine, Total, Clinical Range” value [3, 9] of the same compound?
Answer: normal

Question: What about the “Elevation of serum amino acids (examining physician's comment)” value ([3]; Jan. 29, 2004, after TML, baseline: alanine elevated, glutamine increased) of the same compound?
Answer: No significant elevation of serum Amino Acids

Question: What about the “Eye movement and pupillary response” value ([4]; after 9 weeks of TML therapy) of the same compound?
Answer: more eye movement and even the emergence of “purposeful” eye movement and a faster pupillary response

Question: And the Hypertonicity of legs ([4]; after 9 weeks of TML therapy)?
Answer: still “hypertonic”

Question: What about the Swallowing ([4]; after 9 weeks of TML therapy) of the same compound?
Answer: very much improved, almost normal

Question: What about the “Hypertonicity of arms, hands and fingers” value ([4]; after 9 weeks of TML therapy, also observed by a physiatrist and neurologist) of the same compound?
Answer: notable reduction

Question: And the “Cyanosis symptoms in the hands and feet” value ([4]; after 9 weeks of TML therapy, before: chronically cyanotic)?
Answer: virtually no cyanosis

Question: And the Bowel movements ([4]; after 9 weeks of TML therapy, before: two or three days without bowel movement, enema needed)?
Answer: moving their bowels on their own one to three times a day

Question: And the “Insomnia / sleeping through the night” value ([4]; after approximately the first two weeks of TML, before: sleep interrupted 1 to 3 times per night)?
Answer: The insomnia was gone

Question: And the “Hyperammonemic condition (blue hands and feet)” value ([4]; after the administration of TML)?
Answer: amelioration of the hyperammonemic condition

Question: What about the “Metabolic and outward, observable changes to their condition” value ([4]; exogenous TML to the LINCL child) of the same compound?
Answer: yielded significant metabolic and outward, observable changes to their condition

Question: And the “Full body jerk (Myoclonus) elicited by touch” value ([4]; neurologist's office visit Jan. 30, 2004)?
Answer: no longer elicited a full body jerk

Question: What about the Myoclonic seizures ([4]; neurologist's office visit Jan. 30, 2004, clonazepam continued) of the same compound?
Answer: markedly reduced in severity and in number

Question: And the “Condition on continued TML” value [5]?
Answer: remained stable

Question: And the “Increase of the production of L-carnitine” value (L-carnitine biosynthesis [1])?
Answer: 100 fold

Question: What about the “Increase of the production of L-carnitine” value (L-carnitine biosynthesis [2]) of the same compound?
Answer: 3 fold

Question: Which “Metabolic changes or marked outward observations of their condition” value [6] does the source give for C[N+](C)(C)C[C@H](O)CC(=O)[O-] [L-carnitine, L-b-hydroxy-g-n-trimethylaminobutyric acid] here?
Answer: without significant metabolic changes or marked outward observations of their condition

Question: What about the “Need for endogenous production of L-carnitine” value ([7]; exogenous L-Carnitine to dogs with Batten Disease) of the same compound?
Answer: not ameliorated

Question: And the “Function of the dogs” value [7, 10]?
Answer: more functional

Question: What about the “Life span versus untreated dogs (lived longer)” value [7, 10] of the same compound?
Answer: 10%
